This is an account of results in patent publication US20020049223A1, “Quinoline and naphthyridine carboxylic acid antibacterials” (priority 1999, published 2002).

Bounds are passed on as bounds.

What all share (assay): Assay B: in vitro antibacterial activity, broth microdilution MIC (NCCLS)
What all share (type): cell-based
(Broth dilution looks for growth in wells or tubes with falling amounts of substance.)

The test system of assay [1] is Enterococcus faecalis PIU 1967. As to conditions: Table 2, Assay B, cation-adjusted Mueller Hinton broth, 35° C., 16 to 20 hr; code B = Enterococcus faecalis PIU 1967; unit assumed. In a few lines: (§1)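 Growth inhibition read by eye after incubation at 35° C (16 to 20 hr; 20 to 24 hr for S. pneumoniae and H. influenzae). Medium: cation-adjusted Mueller Hinton broth, supplemented with 3% lysed horse blood or with 5 g/L yeast extract, 0.3 mmol/L hematin and 15 mg/L NAD, respectively.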

For assay [2], the system named is Streptococcus pneumoniae ATCC 6303. To be noted: Table 2, Assay B, Mueller Hinton broth with 3% lysed horse blood, 20 to 24 hr; code F = Streptococcus pneumoniae ATCC 6303; unit assumed. Summed up: as §1
Assay [3] concerns Staphylococcus aureus ATCC 6538P. To be noted: Table 2, Assay B, cation-adjusted Mueller Hinton broth, 35° C., 16 to 20 hr; code A = Staphylococcus aureus ATCC 6538P; unit assumed. Summed up:
as §1

A further assay has as its system Escherichia coli JUHL. To be noted: Table 2, Assay B, cation-adjusted Mueller Hinton broth, 35° C., 16 to 20 hr; code D = Escherichia coli JUHL; unit assumed. Summed up:
as §1

Assay [4] has as its system Haemophilus influenzae DILL AMP R. As to conditions: Table 2, Assay B, Mueller Hinton broth with yeast extract, hematin and NAD, 20 to 24 hr; code E = Haemophilus influenzae DILL AMP R; unit assumed. Summed up: as §1

Consider `COc1c(-c2cc3c(s2)C(O)CCC3)c(F)cc2c(=O)c(C(=O)O)cn(C3CC3)c12` (centres unmarked) [Example 299, 1-cyclopropyl-6-fluoro-7-(7-hydroxy-4,5,6,7-tetrahydro-1-benzothien-2-yl)-8-methoxy-4-oxo-1,4-dihydroquinoline-3-carboxylic acid], for which the Antibacterial Activity (MIC's), B in assay [1] was 0.06 µg/mL. Further, the Antibacterial Activity (MIC's), F in assay [2] came out at 0.06 µg/mL. Also, in assay [3], the Antibacterial Activity (MIC's), A was at most 4 ng/mL. This compound returned an Antibacterial Activity (MIC's), D with Escherichia coli JUHL of 0.125 µg/mL. The Antibacterial Activity (MIC's), E in assay [4] was found to be 0.03 µg/mL.
In the case of `Cl.NC1CCCc2sc(-c3cc4c(cc3F)c(=O)c(C(=O)O)cn4C3CC3)cc21` (centres unmarked) [Example 307, 7-(4-amino-4,5,6,7-tetrahydro-1-benzothien-2-yl)-1-cyclopropyl-6-fluoro-4-oxo-1,4-dihydroquinoline-3-carboxylic acid hydrochloride], the Antibacterial Activity (MIC's), B in assay [1] was determined as 0.03 µg/mL. The Antibacterial Activity (MIC's), F in assay [2] amounted to 0.008 µg/mL. Moreover, the Antibacterial Activity (MIC's), A in assay [3] amounted to 8 ng/mL. For the same compound, in the assay on Escherichia coli JUHL, the Antibacterial Activity (MIC's), D turned out to be 0.03 µg/mL. In addition, in assay [4], the Antibacterial Activity (MIC's), E amounted to 0.015 µg/mL.
Compound `Cl.NC1CCCc2sc(-c3c(F)cc4c(=O)c(C(=O)O)cn(C5CC5)c4c3F)cc21` (centres unmarked) [Example 308, 7-(4-amino-4,5,6,7-tetrahydro-1-benzothien-2-yl)-1-cyclopropyl-6,8-difluoro-4-oxo-1,4-dihydroquinoline-3-carboxylic acid hydrochloride] yielded an Antibacterial Activity (MIC's), B in assay [1] of 0.03 µg/mL. This compound returned an Antibacterial Activity (MIC's), F in assay [2] of 0.015 µg/mL. Also, the Antibacterial Activity (MIC's), A in assay [3] is 8 ng/mL. In the assay on Escherichia coli JUHL, this compound showed an Antibacterial Activity (MIC's), D of 0.03 µg/mL. The same compound registered an Antibacterial Activity (MIC's), E in assay [4] of 0.015 µg/mL.
As for `Cl.NC1CCCc2cc(-c3c(F)cc4c(=O)c(C(=O)O)cn(C5CC5)c4c3F)sc21` (centres unmarked) [Example 309, 7-(7-amino-4,5,6,7-tetrahydro-1-benzothien-2-yl)-1-cyclopropyl-6,8-difluoro-4-oxo-1,4-dihydroquinoline-3-carboxylic acid hydrochloride], in assay [1], the Antibacterial Activity (MIC's), B was determined as 0.06 µg/mL. Further, in assay [2], the Antibacterial Activity (MIC's), F turned out to be 0.06 µg/mL. Further, the Antibacterial Activity (MIC's), A in assay [3] stood at 15 ng/mL. The same compound showed an Antibacterial Activity (MIC's), D in the assay with Escherichia coli JUHL of 0.03 µg/mL. The compound also returned an Antibacterial Activity (MIC's), E in assay [4] of 0.015 µg/mL.
Turning to `Cl.NC1CCCc2cc(-c3cc4c(cc3F)c(=O)c(C(=O)O)cn4C3CC3)sc21` (centres unmarked) [Example 310, 7-(7-amino-4,5,6,7-tetrahydro-1-benzothien-2-yl)-1-cyclopropyl-6-fluoro-4-oxo-1,4-dihydroquinoline-3-carboxylic acid hydrochloride], in assay [1], the Antibacterial Activity (MIC's), B was 0.015 µg/mL. Further, in assay [2], the Antibacterial Activity (MIC's), F was 0.008 µg/mL. The same compound registered an Antibacterial Activity (MIC's), A in assay [3] of 8 ng/mL. The same compound gave an Antibacterial Activity (MIC's), D with Escherichia coli JUHL of 0.015 µg/mL. The compound further registered an Antibacterial Activity (MIC's), E in assay [4] of 0.015 µg/mL.
In assay [1], `O=C(O)c1cn(C2CC2)c2c(Cl)c(-c3cc4c(s3)C(O)CCC4)ccc2c1=O` (centres unmarked) [Example 315, 8-chloro-1-cyclopropyl-7-(7-hydroxy-4,5,6,7-tetrahydro-1-benzothien-2-yl)-4-oxo-1,4-dihydroquinoline-3-carboxylic acid] displayed an Antibacterial Activity (MIC's), B of 0.06 µg/mL. The Antibacterial Activity (MIC's), F in assay [2] turned out to be 0.125 µg/mL. In addition, in assay [3], the Antibacterial Activity (MIC's), A came out at 8 ng/mL. In the assay with Escherichia coli JUHL, the Antibacterial Activity (MIC's), D was 0.125 µg/mL. In assay [4], this compound gave an Antibacterial Activity (MIC's), E of 0.008 µg/mL.
As to `Cc1c(-c2cc3c(s2)CCCC3O)c(F)cc2c(=O)c(C(=O)O)cn(C3CC3)c12` (centres unmarked) [Example 316, 1-cyclopropyl-6-fluoro-7-(4-hydroxy-4,5,6,7-tetrahydro-1-benzothien-2-yl)-8-methyl-4-oxo-1,4-dihydroquinoline-3-carboxylic acid], in assay [1], the Antibacterial Activity (MIC's), B stood at 0.06 µg/mL. The Antibacterial Activity (MIC's), F in assay [2] stood at 0.03 µg/mL. The same compound came in with an Antibacterial Activity (MIC's), A in assay [3] of at most 4 ng/mL. The compound also came in with an Antibacterial Activity (MIC's), D with Escherichia coli JUHL of 0.06 µg/mL. In addition, in assay [4], the Antibacterial Activity (MIC's), E was at most 0.004 µg/mL.
For the compound `CNC1CCCc2sc(-c3c(F)cc4c(=O)c(C(=O)O)cn(C5CC5)c4c3C)cc21.Cl` (centres unmarked) [Example 317, 1-cyclopropyl-6-fluoro-8-methyl-7-(4-(methylamino)-4,5,6,7-tetrahydro-1-benzothien-2-yl)-4-oxo-1,4-dihydroquinoline-3-carboxylic acid hydrochloride], the Antibacterial Activity (MIC's), B in assay [1] amounted to 0.06 µg/mL. In assay [2], this compound gave an Antibacterial Activity (MIC's), F of 0.03 µg/mL. This compound displayed an Antibacterial Activity (MIC's), A in assay [3] of 30 ng/mL. Moreover, the Antibacterial Activity (MIC's), D with Escherichia coli JUHL came out at 0.06 µg/mL. In assay [4], this compound displayed an Antibacterial Activity (MIC's), E of 0.03 µg/mL.
Compound `Nc1c(F)c(-c2cc3c(s2)C(O)CCC3)c(F)c2c1c(=O)c(C(=O)O)cn2C1CC1` (centres unmarked) [Example 319, 5-amino-1-cyclopropyl-6,8-difluoro-7-(7-hydroxy-4,5,6,7-tetrahydro-1-benzothien-2-yl)-4-oxo-1,4-dihydroquinoline-3-carboxylic acid] displayed an Antibacterial Activity (MIC's), B in assay [1] of 0.06 µg/mL. This compound showed an Antibacterial Activity (MIC's), F in assay [2] of 0.03 µg/mL. Moreover, the Antibacterial Activity (MIC's), A in assay [3] was at most 4 ng/mL. Also, the Antibacterial Activity (MIC's), D in the assay with Escherichia coli JUHL turned out to be 0.06 µg/mL. In assay [4], this compound gave an Antibacterial Activity (MIC's), E of 0.015 µg/mL.
`Cc1c(-c2cc3c(s2)CCCC3N)c(F)cc2c(=O)c(C(=O)O)cn(C3CC3)c12.Cl` (centres unmarked) [Example 321, 7-(4-amino-4,5,6,7-tetrahydro-1-benzothien-2-yl)-1-cyclopropyl-6-fluoro-8-methyl-4-oxo-1,4-dihydroquinoline-3-carboxylic acid hydrochloride]: in assay [1], the Antibacterial Activity (MIC's), B turned out to be 0.015 µg/mL. Moreover, the Antibacterial Activity (MIC's), F in assay [2] is at most 0.004 µg/mL. This compound also gave an Antibacterial Activity (MIC's), A in assay [3] of at most 4 ng/mL. The compound further returned an Antibacterial Activity (MIC's), D in the assay with Escherichia coli JUHL of 0.015 µg/mL. The Antibacterial Activity (MIC's), E in assay [4] is at most 0.004 µg/mL.
Take `Cl.NC1CCCc2cc(-c3cc(F)c4c(=O)c(C(=O)O)cn(C5CC5)c4c3F)sc21` (centres unmarked) [Example 326, 7-(7-amino-4,5,6,7-tetrahydro-1-benzothien-2-yl)-1-cyclopropyl-5,8-difluoro-4-oxo-1,4-dihydroquinoline-3-carboxylic acid hydrochloride]: the Antibacterial Activity (MIC's), B in assay [1] came out at 0.25 µg/mL. The compound further gave an Antibacterial Activity (MIC's), F in assay [2] of 0.125 µg/mL. For the same compound, in assay [3], the Antibacterial Activity (MIC's), A came out at 125 ng/mL. Also, in the assay with Escherichia coli JUHL, the Antibacterial Activity (MIC's), D stood at 0.125 µg/mL. In assay [4], this compound yielded an Antibacterial Activity (MIC's), E of 0.015 µg/mL.
In assay [1], `Cl.NC1CCCc2sc(-c3ccc4c(=O)c(C(=O)O)cn(C5CC5)c4c3Cl)cc21` (centres unmarked) [Example 329, 7-(4-amino-4,5,6,7-tetrahydro-1-benzothien-2-yl)-8-chloro-1-cyclopropyl-4-oxo-1,4-dihydroquinoline-3-carboxylic acid hydrochloride] displayed an Antibacterial Activity (MIC's), B of 0.03 µg/mL. For the same compound, the Antibacterial Activity (MIC's), F in assay [2] was 0.008 µg/mL. In assay [3], this compound returned an Antibacterial Activity (MIC's), A of at most 4 ng/mL. This compound also returned an Antibacterial Activity (MIC's), D in the assay on Escherichia coli JUHL of 0.03 µg/mL. Besides, the Antibacterial Activity (MIC's), E in assay [4] is 0.008 µg/mL.
As to `Cl.NC1CCCc2cc(-c3ccc4c(=O)c(C(=O)O)cn(C5CC5)c4c3Cl)sc21` (centres unmarked) [Example 330, 7-(7-amino-4,5,6,7-tetrahydro-1-benzothien-2-yl)-8-chloro-1-cyclopropyl-4-oxo-1,4-dihydroquinoline-3-carboxylic acid hydrochloride], the Antibacterial Activity (MIC's), B in assay [1] is 0.06 µg/mL. Also, the Antibacterial Activity (MIC's), F in assay [2] is 0.03 µg/mL. In assay [3], this compound yielded an Antibacterial Activity (MIC's), A of 15 ng/mL. In the assay on Escherichia coli JUHL, this compound returned an Antibacterial Activity (MIC's), D of 0.03 µg/mL. In addition, the Antibacterial Activity (MIC's), E in assay [4] is 0.008 µg/mL.
On to `CC1(C)CCc2cc(-c3cc4c(cc3F)c(=O)c(C(=O)O)cn4C3CC3)sc2C1O` (centres unmarked) [Example 342, 1-cyclopropyl-6-fluoro-7-(7-hydroxy-6,6-dimethyl-4,5,6,7-tetrahydro-1-benzothien-2-yl)-4-oxo-1,4-dihydroquinoline-3-carboxylic acid], for which the Antibacterial Activity (MIC's), B in assay [1] is 0.25 µg/mL. The Antibacterial Activity (MIC's), F in assay [2] came out at 0.125 µg/mL. The Antibacterial Activity (MIC's), A in assay [3] was 30 ng/mL. In the assay on Escherichia coli JUHL, this compound yielded an Antibacterial Activity (MIC's), D of 0.5 µg/mL. For the same compound, in assay [4], the Antibacterial Activity (MIC's), E came to 0.25 µg/mL.
Compound `CNC1CCCc2sc(-c3c(F)c(N)c4c(=O)c(C(=O)O)cn(C5CC5)c4c3F)cc21.Cl` (centres unmarked) [Example 346, 5-amino-1-cyclopropyl-6,8-difluoro-7-(4-(methylamino)-4,5,6,7-tetrahydro-1-benzothien-2-yl)-4-oxo-1,4-dihydroquinoline-3-carboxylic acid hydrochloride] had an Antibacterial Activity (MIC's), B in assay [1] of 0.03 µg/mL. This compound yielded an Antibacterial Activity (MIC's), F in assay [2] of 0.008 µg/mL. In assay [3], the Antibacterial Activity (MIC's), A is at most 4 ng/mL. This compound also displayed an Antibacterial Activity (MIC's), D in the assay on Escherichia coli JUHL of 0.125 µg/mL. The compound further displayed an Antibacterial Activity (MIC's), E in assay [4] of 0.015 µg/mL.
For `CC1(C)CCc2cc(-c3ccc4c(=O)c(C(=O)O)cn(C5CC5)c4c3Cl)sc2C1N.Cl` (centres unmarked) [Example 347, 7-(7-amino-6,6-dimethyl-4,5,6,7-tetrahydro-1-benzothien-2-yl)-8-chloro-1-cyclopropyl-4-oxo-1,4-dihydroquinoline-3-carboxylic acid hydrochloride], in that order: 0.25 µg/mL, 0.125 µg/mL, 30 ng/mL, 0.25 µg/mL and 0.06 µg/mL.
